US20150183834A1 (priority 2005, published 2015)

How the values were obtained:
human PBMC [1] = assay type: cell-based
human PBMC [2] = assay type: cell-based; remark: listed apart in the source
human PBMC [3] = assay type: cell-based; remark: listed apart in the source
human PBMC [4] = assay type: cell-based; remark: listed apart in the source
human PBMC [5] = assay type: cell-based; remark: listed apart in the source
Rhesus macaque PBMC [6] = assay type: cell-based, Rhesus (Macaca mulatta)
Rhesus macaque PBMC [7] = assay type: cell-based, Rhesus (Macaca mulatta); remark: listed apart in the source
Rhesus macaque PBMC [8] = assay type: cell-based, Rhesus (Macaca mulatta); remark: listed apart in the source
[9] = test system: human peripheral blood mononuclear cells (PBMCs); assay type: cell-based
[10] = test system: purified human CD4+ and CD8+ T cells; assay type: cell-based
protein kinase C = details: cited from earlier work

ILNRKAIDFLLQRWGGT [SEBOV peptide]
CD69+CD4+ T cells (in words) (human PBMC [1]): trend toward reduction
percentage of CD69+ CD8+ T cells (in words) (human PBMC [1]): significant reduction
induction of apoptosis in CD4+ and CD8+ T cells (in words) (human PBMC [2]): Effects were similar

ILNRKAIDFLLQRWGGT [ZEBOV peptide]
fold decrease in the number of CD4+ T cells (human PBMC [3]): 7.4 fold
fold decrease in the number of CD8+ T cells (human PBMC [3]): 4.4 fold
fold reduction in the cell surface expression of CD4 (human PBMC [3]): 3.5 fold
fold reduction in the cell surface expression of CD8 (human PBMC [3]): 4.2 fold
mean fluorescence intensity value for CD4 expression ± SD (human PBMC [3]): 961±40
mean fluorescence intensity value for CD8 expression ± SD (human PBMC [3]): 4,025±75
number of CD4+ T cells (human PBMC [3]): 5.5±1.8 ×10^4
number of CD8+ T cells (human PBMC [3]): 5.8±1.6 ×10^4
percentage of cells positive for CD4 and CD8 (human PBMC [3]): significant decrease
mean fluorescent intensity of CD25 expression on CD4+ and CD8+ T cells (human PBMC [1]): decreased
mean fluorescent intensity of CD69 expression on CD4+ and CD8+ T cells (human PBMC [1]): decreased
percentage of CD4+ T cells that are CD25+ (human PBMC [1]): 65.9±11.8%
percentage of CD4+ T cells that are CD69+ (human PBMC [1]): 69.4±3.4%
percentage of CD8+ T cells that are CD25+ (human PBMC [1]): 43.9+9.0%
percentage of CD8+ T cells that are CD69+ (human PBMC [1]): 67.9±9.6%
percentages of both CD69+CD4+ T cells and CD69+CD8+ T cells (in words) (human PBMC [1]): significant reduction
fold decrease in the percentage of cells in the S phase (human PBMC [4]): 3.5 fold
fold increase in the number of cells with hypodiploid DNA content (human PBMC [4]): 8.8 fold
percentage of BrdU labeled CD4+ cells (human PBMC [4]): 3.9±0.6%
percentage of BrdU labeled CD8+ cells (human PBMC [4]): 4.8±1.8%
percentage of cells in S phase (human PBMC [4]): 8.0±0.5%
percentage of cells with hypodiploid DNA (human PBMC [4]): 22.0±2.2%
fold increase in apoptotic CD4+ cells (human PBMC [2]): 3.6 fold
fold increase in apoptotic CD8+ cells (human PBMC [2]): 2.0 fold
percentage of Annexin V+ PI- CD4+ (human PBMC [2]): 43.6±5.8%
percentage of Annexin V+ PI− CD8+ (human PBMC [2]): 29.7±3.7%
IL-1β (human PBMC [5]): dose-dependent reduction
IL-4 (human PBMC [5]): trend toward decrease
IL-6 (human PBMC [5]): no pattern
IL-10 (human PBMC [5]): increase
MCP-1 (human PBMC [5]): dose-dependent reduction
MIP1-α (human PBMC [5]): no effect
TNF-α (human PBMC [5]): dose-dependent reduction
anti-CD3/CD28-induced production of IFN-γ (human PBMC [5]): suppressed
anti-CD3/CD28-induced production of IL-12p40 (human PBMC [5]): suppressed
production of IL-2 (human PBMC [5]): suppressed
T cell activation (in words) (Rhesus macaque PBMC [6]): Decreased
depletion of CD4+ T cells and CD8+ T cells (in words) (Rhesus macaque PBMC [6]): Significant depletion
apoptosis (in words) (Rhesus macaque PBMC [7]): increased
IFN-γ (Rhesus macaque PBMC [8]): significant decrease
IL1-β (Rhesus macaque PBMC [8]): significant decrease
IL-12p40 (Rhesus macaque PBMC [8]): significant decrease
Levels of IL-8 (Rhesus macaque PBMC [8]): did not alter
Levels of MIP1-α (Rhesus macaque PBMC [8]): did not alter
TNF-α (Rhesus macaque PBMC [8]): significant decrease
levels of IL-2 [9]: decreased levels
levels of IL-10 [9]: increased levels
levels of IL-12 [9]: decreased levels
activation and cell death in purified CD4+ or CD8+ T cell population [10]: sufficient to induce activation and cell death

LINRHAIDFLLTRWGGT [MARV peptide]
percentage of cells positive for CD4 and CD8 (human PBMC [3]): significant decrease
CD69+CD4+ T cells (in words) (human PBMC [1]): trend toward reduction
percentage of CD69+ CD8+ T cells (in words) (human PBMC [1]): significant reduction
percentages of both CD69+CD4+ T cells and CD69+CD8+ T cells (in words) (human PBMC [1]): significant reduction
induction of apoptosis in CD4+ and CD8+ T cells (in words) (human PBMC [2]): Effects were similar

LLNRKAIDFLLQRWGGT [REBOV peptide]
absolute T cell numbers (in words) (human PBMC [3]): no significant depletion
expression levels of CD4 and CD8 on PBMC (in words) (human PBMC [3]): No decrease
percentage of cells positive for CD4 and CD8 (human PBMC [3]): not
CD69+CD4+ T cells (in words) (human PBMC [1]): No effect
IL-2R (CD25) expression in CD4+ and CD8+ T cells (in words) (human PBMC [1]): No effect
percentage of CD69+ CD8+ T cells (in words) (human PBMC [1]): No effect
percentages of both CD69+CD4+ T cells and CD69+CD8+ T cells (in words) (human PBMC [1]): No effect
BrdU labeling (in words) (human PBMC [4]): No significant change
cycling pattern (in words) (human PBMC [4]): No change
induction of apoptosis in CD4+ and CD8+ T cells (in words) (human PBMC [2]): No significant induction
cytokine production overall (in words) (human PBMC [5]): No effects
depletion of CD4+ T cells and CD8+ T cells (in words) (Rhesus macaque PBMC [6]): Significant depletion
fold decrease in the number of CD4+ T cells (Rhesus macaque PBMC [6]): 4.5 fold
fold decrease in the number of CD8+ T cells (Rhesus macaque PBMC [6]): 4.6 fold
mean fluorescent intensity of CD69 expression on CD4+ and CD8+ T cells (Rhesus macaque PBMC [6]): decreased
number of CD4+ T cells (Rhesus macaque PBMC [6]): 4.8±0.7 ×10^4
number of CD8+ T cells (Rhesus macaque PBMC [6]): 2.3±0.4 ×10^4
percentage of CD4+ rhesus T cells that are CD69+ (Rhesus macaque PBMC [6]): 63.6±1.9%
percentage of CD8+ rhesus T cells that are CD69+ (Rhesus macaque PBMC [6]): 60.7±3.1%
fold increase in apoptotic CD4+ cells (Rhesus macaque PBMC [7]): 3.1 fold
fold increase in apoptotic CD8+ cells (Rhesus macaque PBMC [7]): 2.6 fold
percentage of Annexin V+ P1− CD8+ (Rhesus macaque PBMC [7]): 31.8±3.3%
IFN-γ (Rhesus macaque PBMC [8]): significant decrease
IL1-β (Rhesus macaque PBMC [8]): significant decrease
IL-12p40 (Rhesus macaque PBMC [8]): significant decrease
Levels of IL-8 (Rhesus macaque PBMC [8]): did not alter
Levels of MIP1-α (Rhesus macaque PBMC [8]): did not alter
TNF-α (Rhesus macaque PBMC [8]): significant decrease
release of IL-2 (Rhesus macaque PBMC [8]): decreased release

LQNRRGLDLLFLKEGGL [CKS-17, reference compound]
levels of IL-2 [9]: decreased levels
levels of IL-10 [9]: increased levels
levels of IL-12 [9]: decreased levels
activity of protein kinase C (protein kinase C): blocks the activity
